Patent publication US8778941B2, “TRPM8 antagonists and their use in treatments” (AMGEN Inc., priority 2011, dated 2014)

What follows are compounds tested against T1, human TRPM8 (Homo sapiens, UniProt Q7Z2W7) (assay: Luminescence readout assay for measuring intracellular calcium (aequorin), hTRPM8 antagonism). Conditions: CHO cell line expressing human TRPM8 and aequorin; activation by icilin, L-menthol or cold buffer (table does not say which).
T1 construct: expressed in transfected cells; host or cells: Chinese hamster ovary (CHO) cells, T-REx tetracycline-inducible expression system (Invitrogen), co-transfected with pcDNA3.1 jellyfish aequorin
T1 sequence (Q7Z2W7 whole entry): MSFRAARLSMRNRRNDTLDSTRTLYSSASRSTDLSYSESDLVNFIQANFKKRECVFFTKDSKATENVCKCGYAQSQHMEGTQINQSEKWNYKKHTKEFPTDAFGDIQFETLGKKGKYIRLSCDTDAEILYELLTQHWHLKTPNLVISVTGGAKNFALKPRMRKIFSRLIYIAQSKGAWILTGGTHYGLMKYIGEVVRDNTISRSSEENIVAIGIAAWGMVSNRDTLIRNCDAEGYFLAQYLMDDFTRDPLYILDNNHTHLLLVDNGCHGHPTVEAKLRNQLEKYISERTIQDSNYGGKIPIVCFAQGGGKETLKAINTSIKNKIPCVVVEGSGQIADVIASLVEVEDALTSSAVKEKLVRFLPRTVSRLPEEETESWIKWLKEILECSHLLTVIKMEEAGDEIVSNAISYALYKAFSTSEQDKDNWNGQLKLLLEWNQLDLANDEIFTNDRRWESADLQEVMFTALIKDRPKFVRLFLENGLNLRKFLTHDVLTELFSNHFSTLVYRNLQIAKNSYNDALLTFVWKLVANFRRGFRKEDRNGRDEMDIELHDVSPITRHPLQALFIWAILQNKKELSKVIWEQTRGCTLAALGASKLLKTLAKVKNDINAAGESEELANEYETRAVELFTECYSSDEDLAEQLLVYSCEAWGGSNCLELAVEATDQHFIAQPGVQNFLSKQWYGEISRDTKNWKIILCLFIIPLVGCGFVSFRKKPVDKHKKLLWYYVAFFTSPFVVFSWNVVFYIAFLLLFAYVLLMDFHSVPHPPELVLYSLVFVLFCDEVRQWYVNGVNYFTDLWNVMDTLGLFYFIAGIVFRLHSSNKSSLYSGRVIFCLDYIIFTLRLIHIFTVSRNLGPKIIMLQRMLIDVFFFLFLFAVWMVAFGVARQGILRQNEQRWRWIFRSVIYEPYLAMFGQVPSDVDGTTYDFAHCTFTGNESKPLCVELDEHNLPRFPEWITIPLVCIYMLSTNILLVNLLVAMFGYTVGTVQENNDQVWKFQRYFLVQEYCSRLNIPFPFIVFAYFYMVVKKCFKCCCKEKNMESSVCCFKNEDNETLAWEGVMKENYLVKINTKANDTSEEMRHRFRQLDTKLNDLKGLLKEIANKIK
Format: cell-based
Method: Luminescence Readout Assay for Measuring Intracellular Calcium.
A stable Chinese hamster ovary cell line expressing human TRPM8 was generated using tetracycline inducible T-REx™ expression system from Invitrogen, Inc. (Carlsbad, Calif.). […] Twenty four hours before the assay, cells were seeded in 96-well plates and TRPM8 expression was induced with 0.5 μg/mL tetracycline. […] Potential antagonists were added 2.5 min prior to the addition of agonist, […], 100 µM L-menthol, or 1 min prior to the addition of cold buffer (<10° C.). The luminescence was measured by a CCD camera based FLASH-luminometer built by Amgen, Inc. A cooling device attached to FLASH luminometer was used for cold activation.

Compound | IC50
O=C(NC1CCCOC1)N[C@@H](c1ccc(C(F)(F)F)cc1)c1ncccc1C(F)(F)F (stereo partly drawn) [Example 54, 1-(tetrahydro-2H-pyran-3-yl)-3-((S)-(4-(trifluoro-methyl)-phenyl)(3-(trifluoro-methyl)-pyridin-2-yl)-methyl)urea] | 397 nM
CCOc1ccccc1CNC(=O)N[C@@H](c1ccc(C(F)(F)F)cc1)c1ncccc1C(F)(F)F [Example 133, (S)-1-(2-ethoxybenzyl)-3-((4-(trifluoro-methyl)-phenyl)(3-(trifluoro-methyl)-pyridin-2-yl)-methyl)urea (2,2,2-trifluoro-acetate)] | 1590 nM
COC(=O)[C@H](Cc1ccccc1)NC(=O)N[C@@H](c1ccc(C(F)(F)F)cc1)c1ncccc1C(F)(F)F [Example 136, (S)-methyl 3-phenyl-2-(3-((S)-(4-(trifluoro-methyl)-phenyl)(3-(trifluoro-methyl)-pyridin-2-yl)-methyl)-ureido)-propanoate (2,2,2-trifluoro-acetate)] | 4050 nM
O=C(NCc1ccccc1Cl)N[C@@H](c1ccc(C(F)(F)F)cc1)c1ncccc1C(F)(F)F [Example 73, (S)-1-(2-chlorobenzyl)-3-((4-(trifluoro-methyl)-phenyl)(3-(trifluoro-methyl)-pyridin-2-yl)-methyl)urea (2,2,2-trifluoro-acetate)] | 332 nM
CC(C)(C)OC(=O)N[C@@H](c1ccc(C(F)(F)F)cc1)c1ccccn1 [Example 169, (S)-tert-Butyl(pyridin-2-yl(4-(trifluoromethyl)phenyl)methyl)-carbamate 2,2,2-trifluoroacetate] | 663 nM
O=C(Nc1ccc(=O)[nH]c1)N[C@@H](c1ccc(C(F)(F)F)cc1)c1ncccc1F [Example 165, (S)-1-((3-fluoropyridin-2-yl)(4-(trifluoro-methyl)-phenyl)-methyl)-3-(6-oxo-1,6-dihydropyridin-3-yl)urea] | 3210 nM
Cc1cccc(CNC(=O)N[C@@H](c2ccc(C(F)(F)F)cc2)c2ncccc2C(F)(F)F)c1 [Example 147, (S)-1-(3-methylbenzyl)-3-((4-(trifluoro-methyl)-phenyl)(3-(trifluoro-methyl)-pyridin-2-yl)-methyl)urea (2,2,2-trifluoro-acetate)] | 3830 nM
O=C(NCCc1c(Cl)cccc1Cl)N[C@@H](c1ccc(C(F)(F)F)cc1)c1ncccc1C(F)(F)F [Example 132, (S)-1-(2,6-dichlorophen-ethyl)-3-((4-(trifluoro-methyl)-phenyl)(3-(trifluoro-methyl)-pyridin-2-yl)-methyl)urea (2,2,2-trifluoro-acetate)] | 673 nM
O=C(NCc1ccc(F)cc1)N[C@@H](c1ccc(C(F)(F)F)cc1)c1ncccc1C(F)(F)F [Example 144, (S)-1-(4-fluorobenzyl)-3-((4-(trifluoro-methyl)-phenyl)(3-(trifluoro-methyl)-pyridin-2-yl)-methyl)urea (2,2,2-trifluoro-acetate)] | 541 nM
O=C(Nc1c(Br)cc(F)cc1Br)N[C@@H](c1ccc(C(F)(F)F)cc1)c1ncccc1C(F)(F)F [Example 63, (S)-1-(2,6-dibromo-4-fluorophenyl)-3-((4-(trifluoro-methyl)-phenyl)(3-(trifluoro-methyl)-pyridin-2-yl)-methyl)urea (2,2,2-trifluoro-acetate)] | 866 nM
Cc1cccc([C@H](NC(=O)Nc2cccnc2)c2ncccc2C(F)(F)F)c1 [Example 7, (S)-1-((3-methylphenyl) (3-(trifluoro-methyl)-pyridin-2-yl)-methyl)-3-(pyridin-3-yl)-urea] | 723 nM
O=C(Nc1cc(F)cc(F)c1)N[C@@H](c1ccc(C(F)(F)F)cc1)c1ncccc1C(F)(F)F [Example 49, (S)-1-(3,5-difluoro-phenyl)-3-((4-(trifluoro-methyl)-phenyl)(3-(trifluoro-methyl)-pyridin-2-yul)-methyl)urea] | 558 nM
O=C(Nc1cccnc1)N[C@@H](c1cccc(F)c1)c1ncccc1C(F)(F)F [Example 8, (S)-1-((3-fluorophenyl)-(3-(trifluoro-methyl)-pyridin-2-yl)-methyl)-3-(pyridin-3-yl)-urea] | 593 nM
CC(NC(=O)N[C@@H](c1ccc(C(F)(F)F)cc1)c1ncccc1C(F)(F)F)c1ccc(Br)cc1 (stereo partly drawn) [Example 101, 1-(1-(4-bromophenyl)-ethyl)-3-((S)-(4-(trifluoro-methyl)-phenyl)(3-(trifluoro-methyl)-pyridin-2-yl)-methyl)urea (2,2,2-trifluoro-acetate)] | 633 nM
COC(=O)c1cccc(NC(=O)N[C@@H](c2ccc(C(F)(F)F)cc2)c2ncccc2C(F)(F)F)c1C [Example 182, (S)-methyl 2-methyl-3-(3-((4-(trifluoro-methyl)phenyl) (3-(trifluoro-methyl)pyridin-2-yl)methyl)ureido)benzoate (2,2,2-trifluoro-acetate)] | 425 nM

Compounds with a lower IC50, results first:

IC50 | Compound
110 nM | O=C(NCc1ccccc1)N[C@@H](c1ccc(C(F)(F)F)cc1)c1ncccc1C(F)(F)F [Example 109, (S)-1-benzyl-3-((4-(trifluoro-methyl)-phenyl)(3-(trifluoro-methyl)-pyridin-2-yl)-methyl)urea (2,2,2-trifluoro-acetate)]
163 nM | O=C(NCc1cccc(F)c1)N[C@@H](c1ccc(C(F)(F)F)cc1)c1ncccc1C(F)(F)F [Example 72, (S)-1-(3-fluorobenzyl)-3-((4-(trifluoro-methyl)-phenyl)(3-(trifluoro-methyl)-pyridin-2-yl)-methyl)urea (2,2,2-trifluoro-acetate)]
145 nM | COc1ccc([C@H](NC(=O)Nc2cccnc2)c2ncccc2C(F)(F)F)cc1F [Example 5, (S)-1-((3-fluoro-4-methoxy-phenyl)(3-(trifluoro-methyl)-pyridin-2-yl)-methyl)-3-(pyridin-3-yl)-urea]
175 nM | O=C(Nc1cccs1)N[C@@H](c1ccc(C(F)(F)F)cc1)c1ncccc1C(F)(F)F [Example 113, (S)-1-(thiophen-2-yl)-3-((4-(trifluoro-methyl)-phenyl)(3-(trifluoro-methyl)-pyridin-2-yl)-methyl)urea (2,2,2-trifluoro-acetate)]
127 nM | O=C(NCCCc1ccccc1)N[C@@H](c1ccc(C(F)(F)F)cc1)c1ncccc1C(F)(F)F [Example 34, (S)-1-(3-phenylpropyl)-3-((4-(trifluoro-methyl)-phenyl)(3-(trifluoro-methyl)-pyridin-2-yl)-methyl)urea (2,2,2-trifluoro-acetate)]
84 nM | O=C(Nc1cccnc1)N[C@@H](c1ccc(C(F)(F)F)c(F)c1)c1ccccc1C(F)(F)F [Example 121, (S)-1-((3-fluoro-4-(trifluoro-methyl)-phenyl)(2-(trifluoro-methyl)-phenyl)-methyl)-3-(pyridin-3-yl)-urea]
190 nM | COc1ccc(OC)c(CCNC(=O)N[C@@H](c2ccc(C(F)(F)F)cc2)c2ncccc2C(F)(F)F)c1 [Example 110, (S)-1-(2,5-dimethoxy-phenethyl)-3-((4-(trifluoro-methyl)-phenyl)(3-(trifluoro-methyl)-pyridin-2-yl)-methyl)urea (2,2,2-trifluoro-acetate)]
55 nM | O=C1Cc2cc(NC(=O)N[C@@H](c3ccc(C(F)(F)F)cc3)c3ncccc3F)ccc2N1 [Example 149]
209 nM | O=C(Nc1c(F)cccc1F)N[C@@H](c1ccc(C(F)(F)F)cc1)c1ncccc1C(F)(F)F [Example 50, (S)-1-(2,6-difluoro-phenyl)-3-((4-(trifluoro-methyl)-phenyl)(3-(trifluoro-methyl)-pyridin-2-yl)-methyl)urea]
122 nM | CC(C)(C)NC(=O)N[C@@H](c1ccc(C(F)(F)F)cc1)c1ncccc1Br [Example 41, (S)-1-((3-bromopyridin-2-yl)(4-(trifluoro-methyl)-phenyl)-methyl)-3-(tert-butyl)-urea]
201 nM | O=C(Nc1cccnc1)NC(c1ccc(F)c(C(F)(F)F)c1)c1ncccc1F (stereo not shown) [Example 22, 1-((4-fluoro-3-(trifluoro-methyl)-phenyl)(3-fluoropyridin-2-yl)methyl)-3-(pyridin-3-yl)urea (2,2,2-trifluoro-acetate)]
294 nM | O=C(Nc1cc(Cl)nc(Cl)c1)N[C@@H](c1ccc(C(F)(F)F)cc1)c1ncccc1C(F)(F)F [Example 76, (S)-1-(2,6-dichloropyridin-4-yl)-3-((4-(trifluoro-methyl)-phenyl)(3-(trifluoro-methyl)-pyridin-2-yl)-methyl)urea (2,2,2-trifluoro-acetate)]
68 nM | CC(C)OC(=O)N[C@@H](c1ccc(OC(F)(F)F)c(F)c1)c1ncccc1F [Example 175, (S)-isopropyl ((3-fluoro-4-(trifluoromethoxy)phenyl)(3-fluoropyridin-2-yl)methyl)carbamate]
80 nM | N#Cc1cccc(NC(=O)N[C@@H](c2ccc(C(F)(F)F)cc2)c2ncccc2C(F)(F)F)c1 [Example 97, (S)-1-(3-cyanophenyl)-3-((4-(trifluoro-methyl)-phenyl)(3-(trifluoro-methyl)-pyridin-2-yl)-methyl)urea (2,2,2-trifluoro-acetate)]
76 nM | O=C(Nc1ccc[nH]c1=O)N[C@@H](c1ccc(C(F)(F)F)cc1)c1ncccc1F [Example 163, (S)-1-((3-fluoropyridin-2-yl)(4-(trifluoro-methyl)-phenyl)-methyl)-3-(2-oxo-1,2-dihydropyridin-3-yl)urea]
88 nM | O=C(Nc1cccnc1)N[C@@H](c1cnc2c(Cl)cccc2c1)c1ncccc1C(F)(F)F [Example 12, (S)-1-((8-chloroquinolin-3-yl)(3-(trifluoro-methyl)-pyridin-2-yl)-methyl)-3-(pyridin-3-yl)-urea]
